Activity calls are given as the source filed them. No cut-off for these calls is given here.
Assays:
[1] = system: SU-DHL-6; assay: Induction of apoptosis in human SU-DHL-6 cells assessed as late apoptotic cells at 0.5 uM incubated for 24 hrs by Annexin V-FITC/PI staining based flow cytometric analysis (reference value: 6.43 %); assay type: functional
[2] = system: SU-DHL-6; assay: Cell cycle arrest in human SU-DHL-6 cells assessed as accumulation of cells at S phase incubated for 12 hrs by PI staining based flow cytometric analysis; assay type: functional; conditions: dose 0.25-1 µM
[3] = system: SUD4; assay: Antiproliferative activity against human SU-DHL-4 cells assessed as inhibition of cell proliferation by measuring reduction in cell count incubated for 6 days by photographic analysis; assay type: functional, cell-based; conditions: dose 25-100 nM, time 6.0 day
[4] = AUC (0 to t) in female BALB/c mouse at 20 mg/kg, po measured after 24 hrs by LC-MS/MS analysis; assay type: ADME, organism-based; conditions: in vivo
[5] = system: SU-DHL-6; assay: Induction of apoptosis in human SU-DHL-6 cells assessed as viable cells at 0.5 uM incubated for 24 hrs by Annexin V-FITC/PI staining based flow cytometric analysis (reference value: 61.2 %); assay type: functional; conditions: read-out: Activity
[6] = biological target: Phosphatidylinositol 4,5-bisphosphate 3-kinase catalytic subunit beta isoform (Homo sapiens, UniProt P42338); assay: Inhibition of PI3Kbeta (unknown origin) incubated for 2 hrs in presence of ATP by ADP-kinaseGlo reagent based assay
Sequence of Phosphatidylinositol 4,5-bisphosphate 3-kinase catalytic subunit beta isoform (P42338 whole entry, canonical isoform): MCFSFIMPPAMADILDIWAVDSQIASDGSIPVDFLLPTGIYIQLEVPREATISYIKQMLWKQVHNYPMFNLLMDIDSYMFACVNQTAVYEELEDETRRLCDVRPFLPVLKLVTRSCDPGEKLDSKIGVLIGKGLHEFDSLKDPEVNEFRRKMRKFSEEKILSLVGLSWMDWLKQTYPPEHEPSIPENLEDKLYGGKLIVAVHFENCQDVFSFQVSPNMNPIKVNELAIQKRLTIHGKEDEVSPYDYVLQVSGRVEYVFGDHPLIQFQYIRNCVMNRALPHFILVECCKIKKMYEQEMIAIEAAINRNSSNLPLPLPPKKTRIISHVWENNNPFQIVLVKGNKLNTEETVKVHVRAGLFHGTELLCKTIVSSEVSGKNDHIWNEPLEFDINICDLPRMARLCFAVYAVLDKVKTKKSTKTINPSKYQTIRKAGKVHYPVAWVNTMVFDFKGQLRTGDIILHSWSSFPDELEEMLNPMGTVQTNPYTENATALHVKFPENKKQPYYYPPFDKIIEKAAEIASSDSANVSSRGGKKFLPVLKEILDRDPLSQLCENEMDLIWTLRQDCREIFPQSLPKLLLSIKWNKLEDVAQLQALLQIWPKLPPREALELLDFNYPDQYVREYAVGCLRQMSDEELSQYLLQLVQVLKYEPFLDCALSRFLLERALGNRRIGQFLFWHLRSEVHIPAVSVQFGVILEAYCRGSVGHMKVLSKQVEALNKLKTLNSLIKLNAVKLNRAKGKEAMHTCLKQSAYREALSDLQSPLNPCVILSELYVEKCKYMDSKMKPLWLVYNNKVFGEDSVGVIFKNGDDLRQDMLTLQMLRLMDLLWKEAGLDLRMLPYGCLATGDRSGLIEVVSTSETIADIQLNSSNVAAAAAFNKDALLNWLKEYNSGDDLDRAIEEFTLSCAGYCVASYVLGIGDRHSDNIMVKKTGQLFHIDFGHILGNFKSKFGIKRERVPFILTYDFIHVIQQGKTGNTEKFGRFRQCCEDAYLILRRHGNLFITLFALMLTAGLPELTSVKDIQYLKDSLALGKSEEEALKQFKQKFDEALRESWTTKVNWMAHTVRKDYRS

[7] = system: SU-DHL-6; assay: Downregulation of c-Myc expression in human SU-DHL-6 cells at 0.25 to 1 uM incubated for 12 hrs by Western blot analysis; assay type: functional, cell-based; conditions: dose 0.25-1 µM
[8] = AUC (0 to t) in female BALB/c mouse at 1 mg/kg, iv measured after 12 hrs by LC-MS/MS analysis; assay type: ADME, organism-based; conditions: in vivo
[9] = system: SUD4; assay: Induction of apoptosis in human SU-DHL-4 cells assessed as late apoptotic cells at 1 uM incubated for 24 hrs by Annexin V-FITC/PI staining based flow cytometric analysis (reference value: 6.74 %); assay type: functional
[10] = biological target: T1, Bromodomain-containing protein 4 (Homo sapiens, UniProt O60885); assay: Inhibition of His-tagged BRD4-BD2 (unknown origin) incubated for 30 mins in presence of ATP by Alphascreen assay
[11] = system: SU-DHL-6; assay: Inhibition of AKT phosphorylation in human SU-DHL-6 cells incubated for 12 hrs by Western blot analysis; assay type: cell-based; conditions: dose 0.25-1 µM
[12] = system: SUD4; assay: Induction of apoptosis in human SU-DHL-4 cells assessed as viable cells at 1 uM incubated for 24 hrs by Annexin V-FITC/PI staining based flow cytometric analysis (reference value: 65.2 %); assay type: functional; conditions: read-out: Activity
[13] = system: SU-DHL-6; assay: Induction of apoptosis in human SU-DHL-6 cells assessed as early apoptotic cells at 0.25 uM incubated for 24 hrs by Annexin V-FITC/PI staining based flow cytometric analysis (reference value: 32.1 %); assay type: functional
[14] = biological target: Phosphatidylinositol 3-kinase C2 domain-containing subunit gamma (Homo sapiens) (UniProt O75747); assay: Inhibition of human PI3KC2gamma at 1 uM relative to control
Sequence of Phosphatidylinositol 3-kinase C2 domain-containing subunit gamma (Homo sapiens) (O75747 whole entry, the tested form may be a part): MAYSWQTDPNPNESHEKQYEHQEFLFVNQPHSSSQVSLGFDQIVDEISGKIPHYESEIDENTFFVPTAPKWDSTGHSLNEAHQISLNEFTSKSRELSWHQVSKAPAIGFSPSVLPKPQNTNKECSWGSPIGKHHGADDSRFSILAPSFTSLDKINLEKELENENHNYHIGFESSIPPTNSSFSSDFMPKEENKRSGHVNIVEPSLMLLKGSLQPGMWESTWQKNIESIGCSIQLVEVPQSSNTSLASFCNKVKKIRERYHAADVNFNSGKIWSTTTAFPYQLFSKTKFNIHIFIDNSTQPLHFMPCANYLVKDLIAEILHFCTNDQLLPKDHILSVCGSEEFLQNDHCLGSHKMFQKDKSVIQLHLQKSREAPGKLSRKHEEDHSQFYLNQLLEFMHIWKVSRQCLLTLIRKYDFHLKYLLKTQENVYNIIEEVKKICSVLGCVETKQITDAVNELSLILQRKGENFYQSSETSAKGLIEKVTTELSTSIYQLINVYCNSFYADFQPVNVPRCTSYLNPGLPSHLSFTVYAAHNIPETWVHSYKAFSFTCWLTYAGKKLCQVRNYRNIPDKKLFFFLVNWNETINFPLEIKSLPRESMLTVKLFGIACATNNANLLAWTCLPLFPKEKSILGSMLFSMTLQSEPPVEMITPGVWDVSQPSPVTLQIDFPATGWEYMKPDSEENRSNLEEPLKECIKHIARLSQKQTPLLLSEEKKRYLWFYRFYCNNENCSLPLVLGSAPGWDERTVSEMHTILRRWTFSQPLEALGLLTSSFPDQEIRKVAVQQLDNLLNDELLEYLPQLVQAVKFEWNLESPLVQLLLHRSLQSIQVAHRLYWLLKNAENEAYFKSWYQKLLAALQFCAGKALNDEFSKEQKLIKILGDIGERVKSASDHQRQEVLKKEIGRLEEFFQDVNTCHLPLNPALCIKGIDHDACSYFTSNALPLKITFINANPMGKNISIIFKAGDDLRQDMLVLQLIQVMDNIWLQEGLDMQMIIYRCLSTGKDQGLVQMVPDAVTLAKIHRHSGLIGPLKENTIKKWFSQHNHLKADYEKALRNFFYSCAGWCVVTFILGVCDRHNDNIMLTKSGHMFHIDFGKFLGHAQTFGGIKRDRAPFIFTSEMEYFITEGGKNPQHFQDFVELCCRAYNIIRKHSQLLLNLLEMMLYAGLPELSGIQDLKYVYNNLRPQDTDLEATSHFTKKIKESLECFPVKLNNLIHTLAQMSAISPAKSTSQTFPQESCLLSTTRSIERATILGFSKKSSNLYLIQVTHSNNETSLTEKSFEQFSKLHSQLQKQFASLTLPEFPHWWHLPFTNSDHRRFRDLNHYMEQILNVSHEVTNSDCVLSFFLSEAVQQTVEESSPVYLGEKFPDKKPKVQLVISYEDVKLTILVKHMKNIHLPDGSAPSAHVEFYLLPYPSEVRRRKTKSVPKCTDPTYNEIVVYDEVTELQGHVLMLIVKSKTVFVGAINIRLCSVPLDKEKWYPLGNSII

[15] = system: SU-DHL-6; assay: Antiproliferative activity against human SU-DHL-6 cells assessed as inhibition of cell proliferation by measuring reduction in cell count incubated for 6 days by photographic analysis; assay type: functional, cell-based; conditions: dose 12.5-50 nM, time 6.0 day
[16] = system: SU-DHL-6; assay: Induction of apoptosis in human SU-DHL-6 cells assessed as early apoptotic cells at 0.5 uM incubated for 24 hrs by Annexin V-FITC/PI staining based flow cytometric analysis (reference value: 32.1 %); assay type: functional
[17] = system: SU-DHL-4; assay: Inhibition of AKT phosphorylation in human SU-DHL-4 cells at 0.25 to 1 uM incubated for 12 hrs by Western blot analysis; assay type: cell-based; conditions: dose 0.25-1 µM
[18] = Half-life in female BALB/c mouse at 1 mg/kg, iv measured after 12 hrs by LC-MS/MS analysis; assay type: ADME, organism-based; conditions: in vivo
[19] = system: SU-DHL-6; assay: Antitumor activity against human SU-DHL-6 cells xenografted in female BALB/c mouse model assessed as tumor growth inhibition at 20 mg/kg, po administered once daily via gavage for 15 days relative to control; assay type: functional; conditions: SU-DHL-6, 360 h, time 15 day, read-out: TGI
[20] = biological target: T1, Bromodomain-containing protein 4; assay: Inhibition of His-tagged BRD4-BD1 (unknown origin) at 10 nM incubated for 30 mins by Alphascreen assay relative to control
[21] = system: SUD4; assay: Induction of apoptosis in human SU-DHL-4 cells assessed as necrotic cells at 0.5 uM incubated for 24 hrs by Annexin V-FITC/PI staining based flow cytometric analysis (reference value: 0.642 %); assay type: functional
[22] = Half-life in female BALB/c mouse at 20 mg/kg, po measured after 24 hrs by LC-MS/MS analysis; assay type: ADME, organism-based; conditions: in vivo
[23] = biological target: PI3-kinase p110-delta/p85-alpha (Homo sapiens, UniProt O00329); assay: Inhibition of p110delta/p85alpha (unknown origin) incubated for 2 hrs in presence of ATP by ADP-kinaseGlo reagent based assay; assay type: protein-complex assay
[24] = system: SU-DHL-6; assay: Induction of apoptosis in human SU-DHL-6 cells assessed as viable cells at 0.25 uM incubated for 24 hrs by Annexin V-FITC/PI staining based flow cytometric analysis (reference value: 61.2 %); assay type: functional; conditions: read-out: Activity
[25] = biological target: Bromodomain-containing protein 2 (Homo sapiens, UniProt P25440); assay: Inhibition of His-tagged BRD2-BD1 (unknown origin) incubated for 30 mins in presence of ATP by Alphascreen assay
Sequence of Bromodomain-containing protein 2 (P25440 whole entry, canonical isoform): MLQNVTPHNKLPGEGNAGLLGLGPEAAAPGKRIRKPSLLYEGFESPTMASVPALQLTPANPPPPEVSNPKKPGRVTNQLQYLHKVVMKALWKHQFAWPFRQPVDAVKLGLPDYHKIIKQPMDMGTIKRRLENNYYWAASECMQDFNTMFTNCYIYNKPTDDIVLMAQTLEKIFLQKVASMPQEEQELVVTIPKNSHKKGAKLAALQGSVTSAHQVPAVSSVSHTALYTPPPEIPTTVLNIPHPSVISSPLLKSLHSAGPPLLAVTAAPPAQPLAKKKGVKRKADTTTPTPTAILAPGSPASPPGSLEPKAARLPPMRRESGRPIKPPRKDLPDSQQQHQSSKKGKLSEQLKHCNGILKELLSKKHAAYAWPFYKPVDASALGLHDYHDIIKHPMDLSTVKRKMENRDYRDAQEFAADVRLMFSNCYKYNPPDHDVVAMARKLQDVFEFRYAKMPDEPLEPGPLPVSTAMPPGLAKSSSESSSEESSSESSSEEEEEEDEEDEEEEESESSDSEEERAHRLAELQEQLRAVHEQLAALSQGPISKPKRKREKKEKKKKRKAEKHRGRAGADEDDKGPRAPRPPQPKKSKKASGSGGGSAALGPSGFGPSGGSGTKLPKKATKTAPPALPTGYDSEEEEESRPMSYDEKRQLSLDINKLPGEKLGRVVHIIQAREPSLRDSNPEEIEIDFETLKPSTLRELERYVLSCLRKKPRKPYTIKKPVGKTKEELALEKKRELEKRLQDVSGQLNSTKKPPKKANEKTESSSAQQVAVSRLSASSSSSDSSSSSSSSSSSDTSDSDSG

[26] = biological target: Phosphatidylinositol 4,5-bisphosphate 3-kinase catalytic subunit gamma isoform (Homo sapiens, UniProt P48736); assay: Inhibition of human PI3Kgamma at 1 uM relative to control
Sequence of Phosphatidylinositol 4,5-bisphosphate 3-kinase catalytic subunit gamma isoform (P48736 whole entry, looked up, canonical isoform): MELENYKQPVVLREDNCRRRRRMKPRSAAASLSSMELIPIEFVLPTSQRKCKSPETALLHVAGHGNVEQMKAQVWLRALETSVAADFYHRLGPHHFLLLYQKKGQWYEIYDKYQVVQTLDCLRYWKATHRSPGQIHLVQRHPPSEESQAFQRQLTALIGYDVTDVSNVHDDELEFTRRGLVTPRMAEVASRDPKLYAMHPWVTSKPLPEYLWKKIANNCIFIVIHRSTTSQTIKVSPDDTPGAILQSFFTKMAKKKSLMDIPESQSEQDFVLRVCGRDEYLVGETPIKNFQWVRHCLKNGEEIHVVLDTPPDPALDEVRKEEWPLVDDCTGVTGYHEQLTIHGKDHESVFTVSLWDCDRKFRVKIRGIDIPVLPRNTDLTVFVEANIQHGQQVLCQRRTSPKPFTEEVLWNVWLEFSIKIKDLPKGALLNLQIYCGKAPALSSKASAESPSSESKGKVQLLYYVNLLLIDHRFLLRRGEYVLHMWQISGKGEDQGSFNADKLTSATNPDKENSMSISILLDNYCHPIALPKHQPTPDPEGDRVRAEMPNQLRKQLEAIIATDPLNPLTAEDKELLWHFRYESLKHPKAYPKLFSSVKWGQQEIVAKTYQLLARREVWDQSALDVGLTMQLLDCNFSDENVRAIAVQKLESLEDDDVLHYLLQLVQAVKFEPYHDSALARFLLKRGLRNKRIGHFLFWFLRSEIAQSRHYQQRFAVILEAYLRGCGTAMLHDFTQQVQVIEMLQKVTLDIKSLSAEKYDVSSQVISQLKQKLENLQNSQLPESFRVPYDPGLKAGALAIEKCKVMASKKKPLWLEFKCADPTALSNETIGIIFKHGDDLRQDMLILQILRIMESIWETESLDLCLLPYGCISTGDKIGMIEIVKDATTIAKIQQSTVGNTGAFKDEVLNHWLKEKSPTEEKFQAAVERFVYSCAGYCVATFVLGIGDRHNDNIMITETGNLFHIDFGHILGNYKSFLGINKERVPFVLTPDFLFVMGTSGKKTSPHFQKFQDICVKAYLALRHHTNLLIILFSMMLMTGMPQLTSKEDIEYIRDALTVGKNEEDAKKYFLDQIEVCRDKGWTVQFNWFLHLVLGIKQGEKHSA

[27] = Cmax in female BALB/c mouse at 20 mg/kg, po measured after 24 hrs by LC-MS/MS analysis; assay type: ADME, organism-based; conditions: in vivo
[28] = system: SU-DHL-6; assay: Induction of apoptosis in human SU-DHL-6 cells assessed as late apoptotic cells at 1 uM incubated for 24 hrs by Annexin V-FITC/PI staining based flow cytometric analysis (reference value: 6.43 %); assay type: functional
[29] = system: SUD4; assay: Induction of apoptosis in human SU-DHL-4 cells assessed as decrease in Bcl-2 protein expression at 0.25 to 1 uM incubated for 12 hrs by Western blot analysis; assay type: functional, cell-based; conditions: dose 0.25-1 µM
[30] = system: HUVEC; assay: Cytotoxicity against HUVEC cells assessed as effect on cell proliferation at 5 to 20 uM incubated for 72 hrs by Celltiter-luminescence analysis; assay type: toxicity, cell-based; conditions: human, dose 5-20 µM
[31] = Tmax in female BALB/c mouse at 20 mg/kg, po measured after 24 hrs by LC-MS/MS analysis; assay type: ADME, organism-based; conditions: in vivo
[32] = system: SUD4; assay: Induction of apoptosis in human SU-DHL-4 cells assessed as late apoptotic cells at 0.5 uM incubated for 24 hrs by Annexin V-FITC/PI staining based flow cytometric analysis (reference value: 6.74 %); assay type: functional
[33] = system: SUD4; assay: Induction of apoptosis in human SU-DHL-4 cells assessed as early apoptotic cells at 0.25 uM incubated for 24 hrs by Annexin V-FITC/PI staining based flow cytometric analysis (reference value: 25.3 %); assay type: functional
[34] = system: SUD4; assay: Induction of apoptosis in human SU-DHL-4 cells assessed as viable cells at 0.25 uM incubated for 24 hrs by Annexin V-FITC/PI staining based flow cytometric analysis (reference value: 65.2 %); assay type: functional; conditions: read-out: Activity
[35] = Tmax in female BALB/c mouse at 1 mg/kg, iv measured after 12 hrs by LC-MS/MS analysis; assay type: ADME, organism-based; conditions: in vivo

AUC(0-t) at 24 h [4]: 2190 ng·h/mL | IC50 [6]: 4750 nM | AUC(0-t) at 12 h [8]: 145 ng·h/mL | IC50 [10]: 2 nM | inhibition [14]: 15.6% | half-life [18]: 2 h | inhibition [20]: 33.7% | half-life [22]: 3.8 h | IC50 [23]: 112 nM | IC50 [25]: 18 nM | inhibition [26]: 57.2% | Cmax [27]: 228 ng/mL | Tmax [31]: 0.5 h | Tmax [35]: 1.98 min
SMILES: Cn1cc(-c2nc(N3CCOCC3)c3sc(CN4CCC(C(C)(C)O)CC4)cc3n2)c2cc[nH]c2c1=O
Activity [1]: 7.86% | Activity [2]: Dose-dependent-effect | Activity [3]: Dose-dependent-effect; Stronger Effect Observed At Lower Concentration Than Those Of Sf2523 | viability at 0.5 µM [5]: 49.7% | Activity [7]: Active | Activity [9]: 26.2% | inhibition [11]: Dose-dependent-effect | viability at 1 µM [12]: 28.1% | Activity [13]: 39.5% | Activity [15]: Dose-dependent-effect; Stronger Effect Observed At Lower Concentration Than Those Of Sf2523 | Activity [16]: 41.8% | inhibition [17]: Active | inhibition in vivo at 20 mg/kg [19]: 70.8% | Activity [21]: 2.8% | viability at 0.25 µM [24]: 53.7% | Activity [28]: 8.72% | Activity [29]: Active; Modest Effect Observed | Activity [30]: Non-toxic | Activity [32]: 17.3% | Activity [33]: 32.4% | viability at 0.25 µM [34]: 53.7%
